Laboratory results from patent publication US10428060B2, “PI-kinase inhibitors with anti-infective activity” (The Board of Trustees of the Leland Stanford Junior …, priority 2011, dated 2019).

Tests used:
[1] = tested on: HCV genotype 2a; experiment: microbe, parasite or virus in culture; format: cell-based; conditions: Hepatitis C virus, Huh7.5, read-out: HCV2a EC50
[2] = tested on: HRV; experiment: Rhinovirus antiviral assay; format: cell-based; conditions: Human rhinovirus sp.
[3] = tested on: Ebola; experiment: microbe, parasite or virus in culture; format: cell-based; conditions: Zaire ebolavirus, read-out: Ebola EC50
[4] = target: T1, PI3K p110g (Homo sapiens, UniProt P48736); experiment: PI3K p110g kinase assay; format: biochemical
T1 construct: purchased Millipore
Experimental: (§1) In the assays described here, p110α-p85 complex and p110γ were acquired from Millipore. Assays were performed with Lα-phosphatidylinositol (Avanti) as described in Knight et al. Nat Protoc. 2007; 2 (10):2459-66. Inhibitor series were prepared 10% DMSO as 5× stocks for the assay. Assays of HsVps34 were performed as described in Knight et al, except that the final assay buffer composition used was changed to 20 mM HEPES 7.5, 100 mM NaCl, 3 mM MgCl, 1 mg/mL PI and 44 nM hvps34 was used in the assay. […] COS-7 cells were cultured in 10 cm dishes and transfected at 70% confluence with 10 μg of plasmid DNA (HA-tagged bovine PI4KIIIβ, HA-tagged human PI4KIIIα) using Lipofectamine 2000 and 5 ml Opti-MEM following the manufacturer's instructions. After 5 hours the transfection medium was replaced with 10 ml complete DMEM. 36 hrs post transfection, cells were washed once with 5 ml PBS (pH 7.4) and lysed in 1 ml of lysis buffer (1) on ice. Lysates were collected by scraping and after 15 min they were centrifuged at 13,000 rpm for 10 min. To the lysates was added 200 μl of protein G Sepharose 4 fast flow beads that were prewashed with PBS and lysis buffer and 2 μg of anti-HA antibody. The tubes were then incubated overnight at 4 degrees C. in a tube rotator. The Sepharose beads in the lysate were washed twice with 150 mM NaCl in RIPA buffer, twice with RIPA buffer and once with kinase buffer (50 mM Tris/HCl, pH 7.5, 20 mM MgCl2, 1 mM EGTA, 1 mM PtdIns, 0.4% Triton X-100, 0.5 mg/mL BSA) and finally the beads were resuspended in 200 μL kinase buffer. Kinase reactions were run in a mixture of 45 μL of PI buffer (1 mM PI in kinase buffer), 10 μL of immunoprecipitated beads, 2 µL of inhibitors (dissolved and diluted in DMSO) or DMSO and 5 μL of [γ-^32P]-ATP (1 mM and 2 μCi/tube). The immunoprecipitates in PI buffer were pre-incubated with the drugs for 20 min prior the initiation of kinase reaction by adding ATP and the reactions were carried out for 30 min in 15 ml polypropolyne tubes. Reactions were terminated by addition of 3 ml of CHCl3:CH3OH:HCl (200:100:0.75) followed by 0.6 ml of 0.6N HCl to induce phase separation. The mixtures were vortexed, centrifuged at 2000 rpm for 2 min and the upper phase was discarded. To the lower phase was added 1.5 ml of CHCl3:CH3OH:0.6N HCl (3:48:47) and the mixture vortexed and centrifuged at 2000 rpm for 2 min. The lower phase was then transferred to counting vials and evaporated. Samples were counted in a scintillation beta counter after adding 5 ml of Instafluor (Perkin-Elmer).
(§2) PI-kinase assay: Compounds are tested in C.1.1. PI kinase assays as described by Shokat et al., “A membrane capture assay for lipid kinase activity.” Nat. Protoc. 2007; 2(10):2459-66.

[5] = tested on: EV71; experiment: EV71 antiviral assay; format: cell-based; conditions: Enterovirus A
[6] = tested on: Norovirus; experiment: Norovirus antiviral assay; format: cell-based
[7] = target: T2, PI4KIIIA (Homo sapiens, UniProt P42356); experiment: PI4KIIIA kinase assay; format: biochemical
T2 construct: made in house; host or cells: COS-7 cells, transient transfection, anti-HA immunoprecipitate on protein G Sepharose beads
Experimental: as §1, with “Reactions were terminated by addition of 3 ml of CHCl3:CH3OH:HCl (200:100:0.75) followed by 0.6 ml of 0.6N HCl to induce phase separation. The mixtures were vortexed, centrifuged at 2000 rpm for 2 min and the upper phase was discarded. To the lower phase was added 1.5 ml of CHCl3:CH3OH:0.6N HCl (3:48:47) and the mixture vortexed and centrifuged at 2000 rpm for 2 min. The lower phase was then transferred to counting vials and evaporated.” left out, “(Perkin-Elmer). […]” for “(Perkin-Elmer).”

[8] = target: T3, PI4KIIIB (Bos taurus, UniProt O02810); experiment: PI4KIIIB kinase assay; format: biochemical, bovine
T3 construct: made in house; host or cells: COS-7 cells, transient transfection, anti-HA immunoprecipitate on protein G Sepharose beads
Experimental: as §1, with “2007; 2 (10):2459-66.” left out, “for” for “for the assay. Assays of HsVps34 were performed as described in Knight et al, except that the final assay buffer composition used was changed to 20 mM HEPES 7.5, 100 mM NaCl, 3 mM MgCl, 1 mg/mL PI and 44 nM hvps34 was used in”, “Lysates were collected by scraping and after 15 min they were centrifuged at 13,000 rpm for 10 min.” left out, “The Sepharose beads in the lysate were washed twice with 150 mM NaCl in RIPA buffer, twice with RIPA buffer and once with kinase buffer (50 mM Tris/HCl, pH 7.5, 20 mM MgCl2, 1 mM EGTA, 1 mM PtdIns, 0.4% Triton X-100, 0.5 mg/mL BSA) and finally the beads were resuspended in 200 μL kinase buffer.” left out
PI-kinase assay: Compounds are tested in C.1.1. PI kinase assays as described by Shokat et al., “A membrane capture assay for lipid kinase activity.” Nat. Protoc.

[9] = target: T4, PI3KC2G (Homo sapiens, UniProt O75747); experiment: PI3KC2G kinase assay; format: biochemical
T4 sequence (O75747 1-1486): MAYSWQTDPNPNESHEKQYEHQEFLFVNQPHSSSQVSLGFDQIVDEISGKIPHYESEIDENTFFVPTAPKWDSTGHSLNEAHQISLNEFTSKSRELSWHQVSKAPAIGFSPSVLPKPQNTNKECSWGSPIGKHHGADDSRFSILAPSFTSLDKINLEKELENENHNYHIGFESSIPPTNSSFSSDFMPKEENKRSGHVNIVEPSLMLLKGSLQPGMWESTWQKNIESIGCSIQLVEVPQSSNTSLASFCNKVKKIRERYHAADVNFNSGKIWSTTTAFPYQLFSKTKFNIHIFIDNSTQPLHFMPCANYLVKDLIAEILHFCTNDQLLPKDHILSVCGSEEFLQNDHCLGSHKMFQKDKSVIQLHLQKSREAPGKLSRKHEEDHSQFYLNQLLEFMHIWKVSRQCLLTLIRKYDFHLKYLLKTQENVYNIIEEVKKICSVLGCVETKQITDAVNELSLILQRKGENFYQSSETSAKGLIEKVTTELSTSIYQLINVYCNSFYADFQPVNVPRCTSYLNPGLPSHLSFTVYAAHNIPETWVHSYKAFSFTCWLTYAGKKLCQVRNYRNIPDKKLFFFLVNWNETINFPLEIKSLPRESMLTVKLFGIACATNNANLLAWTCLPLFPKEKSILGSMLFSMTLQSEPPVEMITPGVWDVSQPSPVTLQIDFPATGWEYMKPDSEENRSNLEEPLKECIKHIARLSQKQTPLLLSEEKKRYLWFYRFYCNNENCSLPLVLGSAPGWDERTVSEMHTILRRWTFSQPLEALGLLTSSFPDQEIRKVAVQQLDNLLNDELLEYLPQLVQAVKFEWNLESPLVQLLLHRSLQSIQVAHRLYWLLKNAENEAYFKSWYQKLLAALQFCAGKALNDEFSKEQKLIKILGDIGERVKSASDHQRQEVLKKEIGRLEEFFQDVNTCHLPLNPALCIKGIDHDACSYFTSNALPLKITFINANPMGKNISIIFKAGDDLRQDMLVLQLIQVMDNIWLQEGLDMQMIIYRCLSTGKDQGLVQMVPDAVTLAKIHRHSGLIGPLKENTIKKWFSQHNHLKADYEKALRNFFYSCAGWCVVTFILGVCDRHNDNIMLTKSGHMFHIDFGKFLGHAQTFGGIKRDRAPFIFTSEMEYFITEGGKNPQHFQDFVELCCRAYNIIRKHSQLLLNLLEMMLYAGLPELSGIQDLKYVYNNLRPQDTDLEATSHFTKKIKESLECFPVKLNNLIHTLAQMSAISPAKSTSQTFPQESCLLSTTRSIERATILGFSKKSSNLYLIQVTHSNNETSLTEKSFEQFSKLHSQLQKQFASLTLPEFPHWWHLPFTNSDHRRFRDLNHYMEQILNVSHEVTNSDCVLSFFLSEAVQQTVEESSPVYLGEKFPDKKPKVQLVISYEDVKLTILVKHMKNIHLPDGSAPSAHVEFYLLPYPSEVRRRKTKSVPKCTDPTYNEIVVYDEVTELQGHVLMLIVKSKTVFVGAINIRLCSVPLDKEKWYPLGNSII

[10] = target: PI3KC2B (Homo sapiens, UniProt O00750); experiment: PI3KC2B kinase assay; format: biochemical
Experimental: as §2

[11] = tested on: HCV replicon; experiment: Resistance selection in HCV replicon system; format: cell-based

T1 sequence (P48736 whole entry): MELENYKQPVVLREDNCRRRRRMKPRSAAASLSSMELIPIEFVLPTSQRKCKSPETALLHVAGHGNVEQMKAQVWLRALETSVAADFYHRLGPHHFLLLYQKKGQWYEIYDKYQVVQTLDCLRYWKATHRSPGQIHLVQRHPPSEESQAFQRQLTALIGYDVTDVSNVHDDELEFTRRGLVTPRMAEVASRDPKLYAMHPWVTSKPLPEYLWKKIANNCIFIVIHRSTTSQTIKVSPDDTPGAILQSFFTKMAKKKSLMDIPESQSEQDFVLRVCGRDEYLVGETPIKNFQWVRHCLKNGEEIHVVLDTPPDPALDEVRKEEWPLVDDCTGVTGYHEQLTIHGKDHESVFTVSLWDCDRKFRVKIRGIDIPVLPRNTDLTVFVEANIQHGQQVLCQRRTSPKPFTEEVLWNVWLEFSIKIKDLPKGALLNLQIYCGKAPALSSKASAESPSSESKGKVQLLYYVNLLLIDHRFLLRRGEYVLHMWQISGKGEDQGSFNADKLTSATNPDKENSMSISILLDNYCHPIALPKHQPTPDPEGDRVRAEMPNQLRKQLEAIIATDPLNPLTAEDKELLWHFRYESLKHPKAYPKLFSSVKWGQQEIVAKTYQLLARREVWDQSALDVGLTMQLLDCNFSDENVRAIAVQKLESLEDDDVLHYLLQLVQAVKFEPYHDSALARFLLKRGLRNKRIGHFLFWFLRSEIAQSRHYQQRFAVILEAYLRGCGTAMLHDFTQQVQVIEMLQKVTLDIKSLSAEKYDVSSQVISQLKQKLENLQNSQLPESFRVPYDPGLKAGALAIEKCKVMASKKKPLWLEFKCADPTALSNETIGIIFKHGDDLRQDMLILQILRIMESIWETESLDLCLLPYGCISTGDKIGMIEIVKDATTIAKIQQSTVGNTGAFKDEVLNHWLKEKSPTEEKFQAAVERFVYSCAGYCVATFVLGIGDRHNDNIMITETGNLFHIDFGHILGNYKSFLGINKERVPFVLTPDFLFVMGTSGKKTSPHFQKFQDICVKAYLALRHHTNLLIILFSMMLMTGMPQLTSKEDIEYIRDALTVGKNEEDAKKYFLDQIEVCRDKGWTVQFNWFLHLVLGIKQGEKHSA
T2 sequence (P42356 whole entry): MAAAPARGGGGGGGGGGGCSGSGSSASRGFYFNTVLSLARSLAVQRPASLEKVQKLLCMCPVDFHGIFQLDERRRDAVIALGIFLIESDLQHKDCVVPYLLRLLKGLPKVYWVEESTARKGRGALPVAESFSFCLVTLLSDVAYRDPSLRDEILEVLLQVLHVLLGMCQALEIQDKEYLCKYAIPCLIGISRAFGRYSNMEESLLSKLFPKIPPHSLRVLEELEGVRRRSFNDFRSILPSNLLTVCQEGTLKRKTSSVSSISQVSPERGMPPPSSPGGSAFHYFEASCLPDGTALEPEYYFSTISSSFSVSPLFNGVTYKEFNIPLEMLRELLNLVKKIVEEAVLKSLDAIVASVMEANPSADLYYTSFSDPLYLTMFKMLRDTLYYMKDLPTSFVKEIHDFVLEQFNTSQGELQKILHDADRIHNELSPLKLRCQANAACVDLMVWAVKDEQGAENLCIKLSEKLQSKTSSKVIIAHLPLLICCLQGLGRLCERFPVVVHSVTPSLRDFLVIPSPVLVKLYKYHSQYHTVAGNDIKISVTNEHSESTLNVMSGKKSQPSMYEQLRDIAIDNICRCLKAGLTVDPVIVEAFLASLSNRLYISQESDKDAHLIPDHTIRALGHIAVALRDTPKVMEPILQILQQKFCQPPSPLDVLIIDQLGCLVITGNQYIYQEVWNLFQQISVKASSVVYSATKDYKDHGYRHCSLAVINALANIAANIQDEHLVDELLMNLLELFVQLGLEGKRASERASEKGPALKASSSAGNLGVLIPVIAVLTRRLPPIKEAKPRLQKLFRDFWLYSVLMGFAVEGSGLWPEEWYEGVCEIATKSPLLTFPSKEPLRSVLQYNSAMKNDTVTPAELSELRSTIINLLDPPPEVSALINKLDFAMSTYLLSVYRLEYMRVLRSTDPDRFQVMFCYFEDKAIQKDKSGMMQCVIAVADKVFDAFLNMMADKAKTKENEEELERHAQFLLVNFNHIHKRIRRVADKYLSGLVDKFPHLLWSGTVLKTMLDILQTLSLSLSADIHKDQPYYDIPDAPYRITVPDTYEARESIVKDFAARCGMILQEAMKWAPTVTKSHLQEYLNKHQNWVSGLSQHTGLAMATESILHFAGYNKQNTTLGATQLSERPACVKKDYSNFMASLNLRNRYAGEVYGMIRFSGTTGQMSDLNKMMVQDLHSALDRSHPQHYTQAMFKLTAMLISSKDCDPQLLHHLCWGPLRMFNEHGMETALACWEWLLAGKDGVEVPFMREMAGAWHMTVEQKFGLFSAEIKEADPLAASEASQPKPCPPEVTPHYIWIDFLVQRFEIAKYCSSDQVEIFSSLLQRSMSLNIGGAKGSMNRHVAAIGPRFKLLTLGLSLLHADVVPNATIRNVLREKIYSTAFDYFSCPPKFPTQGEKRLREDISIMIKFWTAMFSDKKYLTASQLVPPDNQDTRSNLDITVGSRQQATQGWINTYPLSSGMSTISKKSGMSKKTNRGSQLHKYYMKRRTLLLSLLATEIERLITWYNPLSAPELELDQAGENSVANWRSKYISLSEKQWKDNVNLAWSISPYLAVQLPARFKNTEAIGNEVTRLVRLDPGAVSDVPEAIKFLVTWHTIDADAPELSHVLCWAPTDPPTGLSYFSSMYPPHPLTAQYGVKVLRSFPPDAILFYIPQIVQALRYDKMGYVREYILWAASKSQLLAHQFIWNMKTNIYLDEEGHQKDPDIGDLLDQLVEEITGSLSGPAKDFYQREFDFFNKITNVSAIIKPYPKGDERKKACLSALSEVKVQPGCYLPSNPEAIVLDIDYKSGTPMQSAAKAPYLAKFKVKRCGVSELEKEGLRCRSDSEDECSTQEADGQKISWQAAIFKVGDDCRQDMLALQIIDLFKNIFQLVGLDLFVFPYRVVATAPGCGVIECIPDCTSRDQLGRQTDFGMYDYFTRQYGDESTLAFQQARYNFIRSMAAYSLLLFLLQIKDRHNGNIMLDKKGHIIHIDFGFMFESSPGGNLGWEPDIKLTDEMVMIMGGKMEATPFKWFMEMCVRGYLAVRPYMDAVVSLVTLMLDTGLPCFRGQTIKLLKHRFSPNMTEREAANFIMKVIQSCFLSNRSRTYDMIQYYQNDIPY
Chain of PI3KC2B (O00750 whole entry): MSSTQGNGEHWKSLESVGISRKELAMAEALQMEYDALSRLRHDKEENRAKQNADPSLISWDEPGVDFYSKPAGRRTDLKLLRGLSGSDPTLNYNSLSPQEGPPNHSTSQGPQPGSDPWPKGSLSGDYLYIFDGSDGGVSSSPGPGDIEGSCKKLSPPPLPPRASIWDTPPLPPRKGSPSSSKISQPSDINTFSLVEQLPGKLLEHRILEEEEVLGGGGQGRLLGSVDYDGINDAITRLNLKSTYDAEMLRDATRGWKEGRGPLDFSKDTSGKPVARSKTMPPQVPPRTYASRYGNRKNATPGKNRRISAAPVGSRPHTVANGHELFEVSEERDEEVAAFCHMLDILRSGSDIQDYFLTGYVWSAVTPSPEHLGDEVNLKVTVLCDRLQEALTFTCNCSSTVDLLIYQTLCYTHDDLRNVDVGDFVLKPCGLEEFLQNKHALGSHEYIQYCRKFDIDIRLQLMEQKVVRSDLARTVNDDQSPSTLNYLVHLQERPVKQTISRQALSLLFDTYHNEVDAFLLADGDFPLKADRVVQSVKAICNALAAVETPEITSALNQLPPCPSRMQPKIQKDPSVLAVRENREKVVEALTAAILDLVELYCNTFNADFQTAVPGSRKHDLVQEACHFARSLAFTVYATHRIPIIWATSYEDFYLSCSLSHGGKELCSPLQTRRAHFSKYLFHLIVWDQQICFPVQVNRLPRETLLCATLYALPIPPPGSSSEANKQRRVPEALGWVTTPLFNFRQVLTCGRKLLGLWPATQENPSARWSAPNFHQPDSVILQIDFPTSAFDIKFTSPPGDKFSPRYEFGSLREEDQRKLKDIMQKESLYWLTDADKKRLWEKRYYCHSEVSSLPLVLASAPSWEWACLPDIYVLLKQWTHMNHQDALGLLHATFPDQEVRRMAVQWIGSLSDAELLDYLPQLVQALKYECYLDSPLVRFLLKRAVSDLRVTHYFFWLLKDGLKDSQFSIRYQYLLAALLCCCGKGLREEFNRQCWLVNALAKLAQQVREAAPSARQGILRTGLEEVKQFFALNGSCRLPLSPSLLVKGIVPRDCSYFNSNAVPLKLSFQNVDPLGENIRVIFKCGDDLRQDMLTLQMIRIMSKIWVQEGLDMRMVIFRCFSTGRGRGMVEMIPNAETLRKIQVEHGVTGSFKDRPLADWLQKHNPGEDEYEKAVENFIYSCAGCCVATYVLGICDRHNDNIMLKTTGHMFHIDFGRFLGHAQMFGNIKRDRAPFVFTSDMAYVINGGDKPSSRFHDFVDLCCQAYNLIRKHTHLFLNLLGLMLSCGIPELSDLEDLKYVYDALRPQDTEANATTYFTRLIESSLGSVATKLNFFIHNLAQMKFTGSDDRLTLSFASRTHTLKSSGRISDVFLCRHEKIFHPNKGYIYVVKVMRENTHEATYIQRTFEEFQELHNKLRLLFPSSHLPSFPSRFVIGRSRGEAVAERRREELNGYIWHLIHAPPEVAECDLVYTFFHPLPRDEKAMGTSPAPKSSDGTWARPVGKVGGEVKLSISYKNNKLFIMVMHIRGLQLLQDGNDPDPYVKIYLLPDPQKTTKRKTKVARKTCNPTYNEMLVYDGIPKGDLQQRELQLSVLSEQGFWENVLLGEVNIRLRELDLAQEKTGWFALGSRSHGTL

| SMILES | EC50 [1] | EC50 [2] | EC50 [3] | IC50 [4] | EC50 [5] | EC50 [6] | IC50 [7] | IC50 [8] | IC50 [9] | IC50 [10] | Selection of resistance [11] |
| --- | --- | --- | --- | --- | --- | --- | --- | --- | --- | --- | --- |
| COc1ccc(-c2sc(NCC3CCCCC3)nc2C)cc1S(=O)(=O)Nc1cccc(C(C)(C)C)c1 [Compound S-32, N-(3-tert-butylphenyl)-5-[2-(cyclohexylmethylamino)-4-methyl-thiazol-5-yl]-2-methoxy-benzenesulfonamide; 2,2,2-trifluoroacetic acid] | 1000 to 10000 nM | < 1 nM | 1000 to 10000 nM | – | – | – | – | – | – | – | – |
| COc1ccc(-c2sc(NC3CCCCCC3)nc2C)cc1S(=O)(=O)Nc1c(C)cccc1C [Compound S-98, 5-[2-(cycloheptylamino)-4-methyl-thiazol-5-yl]-N-(2,6-dimethylphenyl)-2-methoxy-benzenesulfonamide; 2,2,2-trifluoroacetic acid] | 1000 to 10000 nM | < 1 nM | – | > 10000 nM | < 1 nM | 1000 to 10000 nM | – | – | – | – | – |
| COc1ccc(-c2sc(NCCC3CCCCC3)nc2C)cc1S(=O)(=O)NC1CCC(O)C1 (centres unmarked) [Compound S-214, 5-[2-(2-cyclohexylethylamino)-4-methyl-thiazol-5-yl]-N-(3-hydroxycyclopentyl)-2-methoxy-benzenesulfonamide] | – | – | – | > 10000 nM | – | – | > 10000 nM | 100 to 1000 nM | > 10000 nM | – | – |
| COc1ccc(-c2sc(NC(=O)CC3CCOCC3)nc2C)cc1S(=O)(=O)Nc1ccc(O)cc1 [Compound S-227, N-[5-[3-[(4-hydroxyphenyl)sulfamoyl]-4-methoxy-phenyl]-4-methyl-thiazol-2-yl]-2-tetrahydropyran-4-yl-acetamide] | 1 to 100 nM | 1 to 100 nM | 100 to 1000 nM | > 10000 nM | < 1 nM | 100 to 1000 nM | – | – | – | > 10000 nM | – |
| COc1ccc(-c2sc(NC(=O)C3CCCC3)nc2C)cc1S(=O)(=O)Nc1ccc(O)cc1 [PT423] | – | – | – | – | – | – | – | – | – | – | resistance was not able to be selected |
